Test results as given in patent publication US7094799B2, “Polymorphs of bicifadine hydrochloride” (DOV Pharmaceutical, Inc., priority 2002, dated 2006).
Where a name gives a salt, the structure may show the parent alone.

Tests used:
Type in all cases: physicochemical
[1] = Stability of the polymorphic form on grinding (Retsch Mixer Mill, XRPD analysis); conditions: Retsch Mixer Mill MM 200, stainless steel ball, 30/s, 5-minute intervals, total of 20 minutes; hydrochloride
Experimental: The X-ray powder diffraction (XRPD) analyses of polymorphic forms A and B of racemic bicifadine hydrochloride were performed with a Shimadzu XRD-6000 X-ray powder diffractometer using Cu Kα radiation. The bicifadine was loaded onto the machine as a crystalline powder. The instrument was equipped with a fine focus X-ray tube. The tube voltage and amperage were set to 40 kV and 40 mA, respectively. The divergence and scattering slits were set at 1° and the receiving slit was set at 0.15 mm. Diffracted radiation was detected by a NaI scintillation detector. A theta-two theta continuous scan at 3°/min (0.4 sec/0.02° step) from 2.5 to 40°2θ was used. A silicon standard was analyzed to check the instrument alignment. Data were collected and analyzed using XRD-6000 v. 4.1.
Form A bicifadine hydrochloride (207 mg) was charged to a small stainless steel cylinder. A stainless steel ball was added, the cylinder capped, and the unit shaken on a Retsch Mixer Mill (Type MM 200) at 5-minute intervals at a frequency of 30/s for a total of 20 minutes. The milled material was then removed and analyzed by XRPD.
Form B bicifadine hydrochloride (111 mg) was charged to a small stainless steel cylinder. […] The milled material was then removed and analyzed by XRPD.

[2] = Thermodynamic stability of polymorphic forms; conditions: form B compared with form A; hydrochloride
[3] = Solubility in organic solvents; conditions: room temperature; become soluble when heated
Experimental: However, they become soluble when heated. In accordance with this conversion, the polymorph form A crystals of bicifadine hydrochloride are mixed with an organic solvent, having a boiling point of at least 50° C. to form a slurry. In carrying out this conversion any conventional organic solvent having a boiling point of at least 50° C. can be utilized. The slurry is then heated to a temperature at which said slurry is a clear solution, and this solution is cooled to a temperature of at most about 35° C., preferably between about 0° C. to about 20° C. The cooled solution is maintained at a temperature of at most about 35° C. for a period of time sufficient to allow said polymorph B to form as a pure crystalline form free from the presence of the polymorph form A. If desired, cooling can be carried out with stirring. During cooling the mixture should be monitored to allow sufficient time for crystalline polymorph B to form from the mixture.

Cc1ccc(C23CNCC2C3)cc1 (racemic) [Form A bicifadine hydrochloride, (±)-1-(4-methylphenyl)-3-azabicyclo[3.1.0]-hexane hydrochloride]
polymorphic form after grinding (XRPD) [1]: partial conversion to form B
thermodynamic stability of crystal form [2]: not the most thermodynamically stable polymorphic form
solubility in organic solvents [3]: poorly soluble

Cc1ccc(C23CNCC2C3)cc1 (racemic) [Form B bicifadine hydrochloride, (±)-1-(4-methylphenyl)-3-azabicyclo[3.1.0]-hexane hydrochloride]
polymorphic form after grinding (XRPD) [1]: remained form B
thermodynamic stability of crystal form [2]: more thermodynamically stable
